SMILES strings stand for the structures.

The test system of the experiment is Mfn2 null MEFs. Description: Mitochondrial elongation (aspect ratio) fusogenicity assay. The format is cell-based, mouse. As to conditions: mitochondrial elongation relative to Cpd B (B01 = 100); Mfn2 null MEFs, compound overnight as printed (FIG. 48). On the set-up: % long compare to B: dose or concentration left out as unconfirmed. An excerpt:
A cultured murine embryonic fibroblast assay system was used in which mitochondrial elongation (an increase in aspect ratio) reflects enhanced mitochondrial fusion.
A pharmacophore model was generated based on the interactions of HR1 and HR2 domains in the calculated structural model of Mfn2 in the closed conformation. The key features included hydrophobic interactions involving Mfn2 HR1: Val372 and Met376, and aromatic interactions and hydrogen bonding involving Mfn2 HR1 His380. […] A library comprising ˜14 million commercially available compounds was prepared in silico and evaluated using PHASE to fit these criteria. Top ranked hits were clustered, and filtered based on pharmacological properties using Qikprop. The top 55 (see TABLE 4) commercially available small molecules conforming to the model were selected for functional screening and purchased in 1 mg aliquots. […] Images were acquired by confocal microscopy. Each compound was scored for fusogenicity (see e.g., FIG. 24A) and % cell death (see e.g., FIG. 24B).
Cells were excited with 408 nm (Hoechst), […] (MitoTracker Green and Calcein AM, GFP), or 637 nm (TMRE, MitoTracker Orange, Ethidium homodimer-1, and AF594-Dextran) laser diodes. For mitochondrial elongation studies mitochondrial aspect ratio (long axis/short axis) was calculated using automated edge detection and Image J software. Mitochondrial depolarization was calculated as % of green mitochondria visualized on MitoTracker Green and TMRE merged images, expressed as green/(green+yellow mitochondria)×100.
For `CC(Sc1nnc(-c2cccs2)n1C1CC1)C(=O)Nc1sc2c(c1C(N)=O)CCC2` (stereo not shown) [1-C12, 2-(2-{[4-cyclopropyl-5-(thiophen-2-yl)-4H-1,2,4-triazol-3-yl]-sulfanyl}propanamido)-4H,5H,6H-cyclopenta[b]-thiophene-3-carboxamide], the “% long compare to B” value was found to be 13%. To `CCC(c1nnc(SCC(=O)Nc2sc3c(c2C(N)=O)CCC3)n1Cc1ccccc1)N(C)C` (stereo not shown) [1-D1, 2-[2-({4-benzyl-5-[1-(dimethyl-amino)propyl]-4H-1,2,4-triazol-3-yl}sulfanyl)acetamido]-4H,5H,6H-cyclopenta[b]thio-phene-3-carboxamide] belongs 23%; to `COc1ccc(-n2cnnc2SCC(=O)Nc2sc3c(c2C(N)=O)CCC3)cc1` [1-D2, 2-(2-{[4-(4-methoxyphenyl)-4H-1,2,4-triazol-3-yl]sul-fanyl}acetamido)-4H,5H,6H-cyclopenta[b]thiophene-3-carboxamide], 128%; to `O=C(CSc1nnc2n1CCCCC2)Nc1sc2c(c1C(=O)NCc1ccccc1)CCCC2` [1-D4, N-benzyl-2-(2-{5H,6H,7H,8H,9H-[1,2,4]triazolo[4,3-a]azepin-3-ylsulfanyl}acetamido)-4,5,6,7-tetrahydro-1-benzothiophene-3-carboxamide], 105%. For `CC(Sc1nnc(-c2ccccc2)n1Cc1ccco1)C(=O)Nc1sc2c(c1C(N)=O)CCC2` (stereo not shown) [1-D7, 2-[2-({4-[(furan-2-yl)methyl]-5-phenyl-4H-1,2,4-triazol-3-yl}sulfanyl)propanamido]-4H,5H,6H-cyclopenta[b]thio-phene-3-carboxamide], the “% long compare to B” value worked out at 92%.

Regarding `Cn1c(CC2CCS(=O)(=O)C2)nnc1SCC(=O)Nc1sc2c(c1C(N)=O)CCC2` (stereo not shown) [1-D9, 2-[2-({5-[(1,1-dioxo-1λ^6-thiolan-3-yl)methyl]-4-methyl-4H-1,2,4-triazol-3-yl}sulfanyl)acetamido]-4H,5H,6H-cyclopenta-[b]thiophene-3-carboxamide], the “% long compare to B” value was found to be 5%. As to `CCn1c(SCC(=O)Nc2sc3c(c2C(N)=O)CCC(C)C3)nnc1C1CC1` (stereo not shown) [1-D11, 2-{2-[(5-cyclopropyl-4-ethyl-4H-1,2,4-triazol-3-yl)sulfanyl]acetamido}-6-methyl-4,5,6,7-tetrahydro-1-benzothiophene-3-carboxamide], the “% long compare to B” value worked out at 6%.

For the compound `CC(Sc1nnc2n1CCCCC2)C(=O)Nc1sc2c(c1C(N)=O)CCC2` (stereo not shown) [1-D12, 2-(2-{5H,6H,7H,8H,9H-[1,2,4]triazolo[4,3-a]azepin-3-ylsulfanyl}propanamido)-4H,5H,6H-cyclopenta[b]-thiophene-3-carboxamide], the “% long compare to B” value turned out to be 18%. To `C=CCn1c(SCC(=O)Nc2sc3c(c2C(N)=O)CCC3)nnc1C1CCCCC1` [1-E1, 2-(2-{[5-cyclohexyl-4-(prop-2-en-1-yl)-4H-1,2,4-triazol-3-yl}sulfanyl]acetamido)-4H,5H,6H-cyclopenta[b]thio-phene-3-carboxamide] belongs 38%; to `COc1ccccc1-n1cnnc1SCC(=O)Nc1sc2c(c1C(N)=O)CCC2` [1-E2, 2-(2-{[4-(2-methoxyphenyl)-4H-1,2,4-triazol-3-yl]sulfanyl}acet-amido)-4H,5H,6H-cyclopenta-[b]thiophene-3-carboxamide], 17%; to `CC1CCc2c(sc(NC(=O)CSc3nnc(C4CC4)n3Cc3ccccc3)c2C(N)=O)C1` (stereo not shown) [1-E3, 2-{2-[(4-benzyl-5-cyclopropyl-4H-1,2,4-triazol-3-yl)sulfanyl]acetamido}-6-methyl-4,5,6,7-tetrahydro-1-benzothiophene-3-carboxamide], 11%. `COc1ccc(NC(=O)c2c(NC(=O)CSc3nnc(C4CC4)n3C)sc3c2CCCC3)cc1` [1-E4, 2-{2-[(5-cyclopropyl-4-methyl-4H-1,2,4-triazol-3-yl)sulfanyl]acetamido}-N-(4-methoxyphenyl)-4,5,6,7-tetrahydro-1-benzothiophene-3-carboxamide]: the “% long compare to B” value amounted to 17%. To `NC(=O)c1c(NC(=O)CSc2nnc(C3CC3)n2-c2ccccc2)sc2c1CCCC2` [1-E5, 2-{2-[(5-cyclopropyl-4-phenyl-4H-1,2,4-triazol-3-yl)sulfanyl]-acetamido}-4,5,6,7-tetrahydro-1-benzothiophene-3-carboxamide] belongs −3%; to `CCn1c(SCC(=O)Nc2sc3c(c2C(=O)NCc2ccccc2)CCCC3)nnc1C1CC1` [1-E6, N-benzyl-2-{2-[(5-cyclopropyl-4-ethyl-4H-1,2,4-triazol-3-yl)sulfanyl]acetamido}-4,5,6,7-tetrahydro-1-benzothiophene-3-carboxamide], 10%; to `Cc1ccccc1-c1nnc(SCC(=O)Nc2sc3c(c2C(N)=O)CCC3)n1C` [1-E7, 2-(2-{[4-methyl-5-(2-methyl-phenyl)-4H-1,2,4-triazol-3-yl]sulfanyl}acetamido)-4H,5H,6H-cyclopenta[b]-thiophene-3-carboxamide], 9%. Turning to `CC(Sc1nccn1-c1cccc(F)c1)C(=O)Nc1sc2c(c1C(N)=O)CCC2` (stereo not shown) [1-E8, 2-(2-{[1-(3-fluorophenyl)-1H-imidazol-2-yl]sulfanyl}pro-panamido)-4H,5H,6H-cyclo-penta[b]thiophene-3-carboxamide], the “% long compare to B” value was 5%. As for `CC(Sc1nnc(CC2CCS(=O)(=O)C2)n1C)C(=O)Nc1sc2c(c1C(N)=O)CCC2` (stereo not shown) [1-E9, 2-[2-({5-[(1,1-dioxo-1λ^6-thiolan-3-yl)methyl]-4-methyl-4H-1,2,4-triazol-3-yl}sulfanyl)propanamido]-4H,5H,6H-cyclopenta[b]thio-phene-3-carboxamide], the “% long compare to B” value worked out at 0%. In the case of `Cc1cccc(-n2ccnc2SC(C)C(=O)Nc2sc3c(c2C(N)=O)CCC3)c1C` (stereo not shown) [1-E10, 2-(2-{[1-(2,3-dimethylphenyl)-1H-imidazol-2-yl]sulfanyl}pro-panamido)-4H,5H,6H-cyclo-penta[b]thiophene-3-carboxamide], the “% long compare to B” value came to 21%. Under `NC(=O)c1c(NC(=O)CSc2nnc(-c3ccco3)n2-c2ccccc2)sc2c1CCC2` [1-F1, 2-(2-{[5-(furan-2-yl)-4-phenyl-4H-1,2,4-triazol-3-yl]sulfanyl}-acetamido)-4H,5H,6H-cyclo-penta[b]thiophene-3-carboxamide] stands 21%; under `C=CCn1c(SCC(=O)Nc2sc3c(c2C(N)=O)CCC3)nnc1-c1ccccc1` [1-F2, 2-(2-{[5-phenyl-4-(prop-2-en-1-yl)-4H-1,2,4-triazol-3-yl]sulfanyl}acetamido)-4H,5H,6H-cyclopenta[b]thio-phene-3-carboxamide], −10%; under `Cc1ccc(-n2c(C)nnc2SCC(=O)Nc2sc3c(c2C(N)=O)CCC3)cc1` [1-F3, 2-(2-{[5-methyl-4-(4-methylphenyl)-4H-1,2,4-triazol-3-yl]sulfanyl}acetamido)-4H,5H,6H-cyclopenta[b]-thiophene-3-carboxamide], 13%. As to `COc1ccccc1-n1c(C)nnc1SCC(=O)Nc1sc2c(c1C(N)=O)CCCC2` [1-F4, 2-(2-{[4-(2-methoxyphenyl)-5-methyl-4H-1,2,4-triazol-3-yl]sulfanyl}acetamido)-4,5,6,7-tetrahydro-1-benzothiophene-3-carboxamide], the “% long compare to B” value turned out to be 22%. To `CCn1c(SCC(=O)Nc2sc3c(c2C(N)=O)CCCC3)nnc1C1CC1` [1-F5, 2-{2-[(5-cyclopropyl-4-ethyl-4H-1,2,4-triazol-3-yl)sulfanyl]acet-amido}-4,5,6,7-tetrahydro-1-benzothiophene-3-carboxamide] belongs −7%.

For the compound `CC(c1nnc(SCC(=O)Nc2sc3c(c2C(N)=O)CCC3)n1-c1ccc(F)cc1)N(C)C` (stereo not shown) [1-F6, 2-[2-({5-[1-(dimethylamino)ethyl]-4-(4-fluorophenyl)-4H-1,2,4-triazol-3-yl}sulfanyl)acetamido]-4H,5H,6H-cyclopenta[b]thio-phene-3-carboxamide], the “% long compare to B” value came out at 30%. On to `CC(Sc1nnc(-c2cccs2)n1-c1ccccc1)C(=O)Nc1sc2c(c1C(N)=O)CCC2` (stereo not shown) [1-F7, 2-(2-{[4-phenyl-5-(thiophen-2-yl)-4H-1,2,4-lriazol-3-yl]sul-fanyl}propanamido)-4H,5H,6H-cyclopenta[b]thiophene-3-carboxamide], for which the “% long compare to B” value is recorded as −26%. On to `CC(Sc1nnc(-c2c[nH]c3ccccc23)n1C1CC1)C(=O)Nc1sc2c(c1C(N)=O)CCC2` (stereo not shown) [1-F8, 2-(2-{[4-cyclopropyl-5-(1H-indol-3-yl)-4H-1,2,4-triazol-3-yl]sulfanyl}propanamido)-4H,5H,6H-cyclopenta[b]-thiophene-3-carboxamide], for which the “% long compare to B” value came out at 2%. To `C=CCn1c(SCC(=O)Nc2sc3c(c2C(N)=O)CCCC3)nnc1C1CC1` [1-F9, 2-(2-{[5-cyclopropyl-4-(prop-2-en-1-yl)-4H-1,2,4-triazol-3-yl]sulfanyl}acet-amido)-4,5,6,7-tetrahydro-1-benzothiophene-3-carboxamide] belongs 202%; to `CC(Sc1nnc(-c2cccnc2)n1Cc1ccco1)C(=O)Nc1sc2c(c1C(N)=O)CCC2` (stereo not shown) [1-F10, 2-[2-({4-[(furan-2-yl)methyl]-5-(pyridin-3-yl)-4H-1,2,4-triazol-3-yl}sulfanyl)propanamido]-4H,5H,6H-cyclopenta[b]-thiophene-3-carboxamide], 29%.

Source of the values: patent US10844023B2 (Washington University, priority 2017, dated 2020).
